Results from publication PMC12140300, “Development of Carbon‐11 Labeled Pyrimidine Derivatives as Novel Positron Emission Tomography (PET) Agents Enabling Brain Sigma‐1 Receptor Imaging” (Advanced Science, 2025).

Legend:
Assay in all cases: PDSP radioligand assay
Type in all cases: binding
[1] = target: T1, 5-HT1A (Homo sapiens, UniProt P08908)
T1 construct: purchased NIMH Psychoactive Drug Screening Program (PDSP)
Experimental: (§1) The ex vivo binding affinities of σRs of CNY‐01 and CNY‐02 were measured using a competitive radioligand binding assay.^[ [35] ^]
(§2) Details of individual binding assay conditions and protocols are available at the NIMH PDSP website: https://pdsp.unc.edu/pdspweb/.

[2] = target: 5-HT7A (Homo sapiens, UniProt P34969)
Experimental: as §1, §2

[3] = target: T2, Alpha1A (Homo sapiens, UniProt P35348)
T2 construct: purchased NIMH Psychoactive Drug Screening Program (PDSP)
Experimental: as §1, §2

[4] = target: T3, Alpha1B (Homo sapiens, UniProt P35368)
T3 construct: purchased NIMH Psychoactive Drug Screening Program (PDSP)
Experimental: as §1, §2

[5] = target: T4, Alpha2A (Homo sapiens, UniProt P08913)
T4 sequence (P08913 1-465): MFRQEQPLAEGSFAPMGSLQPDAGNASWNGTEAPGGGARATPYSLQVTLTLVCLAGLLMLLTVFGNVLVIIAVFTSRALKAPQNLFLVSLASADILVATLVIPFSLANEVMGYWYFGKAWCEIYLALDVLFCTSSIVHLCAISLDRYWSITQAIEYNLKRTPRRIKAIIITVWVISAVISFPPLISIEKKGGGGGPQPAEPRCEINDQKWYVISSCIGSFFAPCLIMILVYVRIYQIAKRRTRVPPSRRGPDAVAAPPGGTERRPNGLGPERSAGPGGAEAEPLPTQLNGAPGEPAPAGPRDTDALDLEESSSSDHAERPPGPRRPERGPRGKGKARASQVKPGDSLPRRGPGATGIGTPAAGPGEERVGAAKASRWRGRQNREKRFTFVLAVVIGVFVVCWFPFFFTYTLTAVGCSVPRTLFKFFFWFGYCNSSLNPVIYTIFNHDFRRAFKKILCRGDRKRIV
Experimental: as §1, §2

[6] = target: T5, Alpha2B (Homo sapiens, UniProt P18089)
T5 sequence (P18089 1-450): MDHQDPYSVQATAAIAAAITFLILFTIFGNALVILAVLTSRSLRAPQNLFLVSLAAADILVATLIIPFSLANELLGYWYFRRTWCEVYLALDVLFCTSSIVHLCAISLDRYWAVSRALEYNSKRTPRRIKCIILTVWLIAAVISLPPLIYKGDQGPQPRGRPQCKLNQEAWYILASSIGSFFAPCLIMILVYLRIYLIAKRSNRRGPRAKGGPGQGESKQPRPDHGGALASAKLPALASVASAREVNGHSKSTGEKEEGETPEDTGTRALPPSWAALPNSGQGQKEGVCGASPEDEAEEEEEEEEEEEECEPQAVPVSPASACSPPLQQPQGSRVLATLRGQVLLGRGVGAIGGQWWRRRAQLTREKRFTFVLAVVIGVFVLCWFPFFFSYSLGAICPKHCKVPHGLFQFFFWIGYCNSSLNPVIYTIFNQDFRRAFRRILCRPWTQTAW
Experimental: as §1, §2

[7] = target: T6, Alpha2C (Homo sapiens, UniProt P18825)
T6 sequence (P18825 1-462): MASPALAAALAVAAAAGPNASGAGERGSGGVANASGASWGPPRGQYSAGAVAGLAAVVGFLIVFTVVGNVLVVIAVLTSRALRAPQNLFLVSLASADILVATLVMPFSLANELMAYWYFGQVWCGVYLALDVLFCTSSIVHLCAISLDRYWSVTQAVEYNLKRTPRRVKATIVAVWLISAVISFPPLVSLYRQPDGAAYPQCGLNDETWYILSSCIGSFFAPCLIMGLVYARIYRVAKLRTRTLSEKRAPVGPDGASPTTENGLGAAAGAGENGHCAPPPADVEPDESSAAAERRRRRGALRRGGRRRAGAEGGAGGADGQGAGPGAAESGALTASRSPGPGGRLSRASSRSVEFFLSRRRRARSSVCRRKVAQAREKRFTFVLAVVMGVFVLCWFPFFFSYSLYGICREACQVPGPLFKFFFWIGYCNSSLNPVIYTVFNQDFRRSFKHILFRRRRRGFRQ
Experimental: as §1, §2

[8] = tested on: BZP Rat Brain Site; conditions: 10 µM
Experimental: as §1, §2

[9] = target: T7, Beta2 (Homo sapiens, UniProt P07550)
T7 construct: purchased NIMH Psychoactive Drug Screening Program (PDSP)
Experimental: as §1, §2

[10] = target: T8, Beta3 (Homo sapiens, UniProt P13945)
T8 construct: purchased NIMH Psychoactive Drug Screening Program (PDSP)
Experimental: as §1, §2

[11] = target: T9, D2 (Homo sapiens, UniProt P14416)
T9 construct: purchased NIMH Psychoactive Drug Screening Program (PDSP)
Experimental: as §1, §2

[12] = target: D5 (Homo sapiens, UniProt P21918)
Experimental: as §1, §2

[13] = target: T10, DAT (Homo sapiens, UniProt Q01959)
T10 construct: purchased NIMH Psychoactive Drug Screening Program (PDSP)
Experimental: as §1, §2

[14] = target: T11, H4 (Homo sapiens, UniProt Q9H3N8)
T11 construct: purchased NIMH Psychoactive Drug Screening Program (PDSP)
Experimental: as §1, §2

[15] = target: KOR (Homo sapiens, UniProt P41145)
Experimental: as §1, §2

[16] = target: T12, M1 (Homo sapiens, UniProt P11229)
T12 construct: purchased NIMH Psychoactive Drug Screening Program (PDSP)
Experimental: as §1, §2

[17] = target: T13, M4 (Homo sapiens, UniProt P08173)
T13 construct: purchased NIMH Psychoactive Drug Screening Program (PDSP)

[18] = target: T14, PBR (Rattus norvegicus, UniProt P16257)
T14 construct: purchased NIMH Psychoactive Drug Screening Program (PDSP)

[19] = target: T15, SERT (Homo sapiens, UniProt P31645)
T15 construct: purchased NIMH Psychoactive Drug Screening Program (PDSP)

Sequence of D5 (P21918 whole entry): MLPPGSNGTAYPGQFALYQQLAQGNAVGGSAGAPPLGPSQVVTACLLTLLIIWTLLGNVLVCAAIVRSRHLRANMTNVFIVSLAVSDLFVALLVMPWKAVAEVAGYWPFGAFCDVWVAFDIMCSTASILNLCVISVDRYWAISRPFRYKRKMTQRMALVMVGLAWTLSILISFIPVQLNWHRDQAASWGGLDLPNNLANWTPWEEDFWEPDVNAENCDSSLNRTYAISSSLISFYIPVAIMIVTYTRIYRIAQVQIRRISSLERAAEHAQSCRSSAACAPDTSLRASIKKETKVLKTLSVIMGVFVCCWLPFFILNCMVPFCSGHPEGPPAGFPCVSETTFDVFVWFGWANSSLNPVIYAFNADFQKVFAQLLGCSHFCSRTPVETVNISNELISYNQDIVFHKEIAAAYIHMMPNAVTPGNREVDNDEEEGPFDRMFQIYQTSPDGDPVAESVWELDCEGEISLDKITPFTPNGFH
Sequence of 5-HT7A (P34969 1-445 isoform P34969-2): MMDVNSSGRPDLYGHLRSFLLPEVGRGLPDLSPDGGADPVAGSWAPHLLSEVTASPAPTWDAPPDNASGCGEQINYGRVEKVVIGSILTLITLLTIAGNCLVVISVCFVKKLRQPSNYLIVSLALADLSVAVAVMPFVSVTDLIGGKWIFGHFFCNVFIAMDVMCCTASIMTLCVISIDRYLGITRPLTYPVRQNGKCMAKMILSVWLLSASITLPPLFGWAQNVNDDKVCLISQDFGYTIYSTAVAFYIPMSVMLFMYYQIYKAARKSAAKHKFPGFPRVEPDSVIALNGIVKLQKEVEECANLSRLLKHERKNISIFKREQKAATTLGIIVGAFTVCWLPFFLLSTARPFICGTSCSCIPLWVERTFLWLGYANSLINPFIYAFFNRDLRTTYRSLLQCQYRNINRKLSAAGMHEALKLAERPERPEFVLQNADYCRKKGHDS
Sequence of KOR (P41145 whole entry): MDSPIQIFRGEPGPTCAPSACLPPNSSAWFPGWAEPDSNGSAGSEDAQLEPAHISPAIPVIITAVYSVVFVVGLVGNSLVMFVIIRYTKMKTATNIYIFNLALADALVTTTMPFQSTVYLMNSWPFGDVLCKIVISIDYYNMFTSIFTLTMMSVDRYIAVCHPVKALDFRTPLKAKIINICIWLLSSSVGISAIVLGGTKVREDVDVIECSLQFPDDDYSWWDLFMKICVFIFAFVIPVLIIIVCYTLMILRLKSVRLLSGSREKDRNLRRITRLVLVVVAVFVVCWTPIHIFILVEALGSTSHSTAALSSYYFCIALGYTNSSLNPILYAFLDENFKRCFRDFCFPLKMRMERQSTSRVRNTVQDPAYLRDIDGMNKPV
T3 sequence (P35368 whole entry): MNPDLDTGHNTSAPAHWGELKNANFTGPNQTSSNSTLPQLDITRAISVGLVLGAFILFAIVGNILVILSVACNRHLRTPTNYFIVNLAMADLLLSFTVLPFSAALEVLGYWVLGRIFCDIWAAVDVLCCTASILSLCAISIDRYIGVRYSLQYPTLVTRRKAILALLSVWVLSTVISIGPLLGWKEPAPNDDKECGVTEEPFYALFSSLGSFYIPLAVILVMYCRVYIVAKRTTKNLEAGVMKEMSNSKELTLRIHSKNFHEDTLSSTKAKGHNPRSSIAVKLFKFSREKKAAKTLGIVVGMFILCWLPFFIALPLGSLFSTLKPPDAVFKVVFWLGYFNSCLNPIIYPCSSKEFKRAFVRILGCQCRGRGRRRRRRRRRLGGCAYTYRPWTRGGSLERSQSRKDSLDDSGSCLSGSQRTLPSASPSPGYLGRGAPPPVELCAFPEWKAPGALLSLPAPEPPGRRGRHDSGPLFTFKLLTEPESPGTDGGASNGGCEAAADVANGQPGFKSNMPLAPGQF
T9 sequence (P14416 whole entry): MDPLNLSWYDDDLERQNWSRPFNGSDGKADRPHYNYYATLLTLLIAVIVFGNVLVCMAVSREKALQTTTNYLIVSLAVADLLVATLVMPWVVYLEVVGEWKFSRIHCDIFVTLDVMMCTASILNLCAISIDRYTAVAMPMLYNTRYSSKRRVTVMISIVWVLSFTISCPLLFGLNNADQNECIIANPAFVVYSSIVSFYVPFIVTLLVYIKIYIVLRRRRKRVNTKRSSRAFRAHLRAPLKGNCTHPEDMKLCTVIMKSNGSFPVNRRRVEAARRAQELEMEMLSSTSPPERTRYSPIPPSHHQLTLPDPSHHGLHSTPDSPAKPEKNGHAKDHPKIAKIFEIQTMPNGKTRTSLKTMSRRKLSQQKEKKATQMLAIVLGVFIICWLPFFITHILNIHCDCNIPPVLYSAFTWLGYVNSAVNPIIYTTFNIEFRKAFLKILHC
T1 sequence (P08908 whole entry): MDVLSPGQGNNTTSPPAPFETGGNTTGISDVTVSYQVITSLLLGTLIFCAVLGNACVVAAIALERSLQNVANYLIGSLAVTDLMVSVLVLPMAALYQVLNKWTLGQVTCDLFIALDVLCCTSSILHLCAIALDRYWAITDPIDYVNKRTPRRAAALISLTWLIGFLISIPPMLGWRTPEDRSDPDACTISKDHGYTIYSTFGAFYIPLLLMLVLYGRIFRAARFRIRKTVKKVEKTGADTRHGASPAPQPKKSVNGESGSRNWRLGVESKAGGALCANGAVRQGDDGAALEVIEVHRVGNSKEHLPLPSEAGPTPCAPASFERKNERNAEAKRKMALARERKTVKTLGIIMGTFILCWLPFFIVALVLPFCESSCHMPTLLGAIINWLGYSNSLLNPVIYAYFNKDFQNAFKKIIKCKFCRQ
T10 sequence (Q01959 whole entry): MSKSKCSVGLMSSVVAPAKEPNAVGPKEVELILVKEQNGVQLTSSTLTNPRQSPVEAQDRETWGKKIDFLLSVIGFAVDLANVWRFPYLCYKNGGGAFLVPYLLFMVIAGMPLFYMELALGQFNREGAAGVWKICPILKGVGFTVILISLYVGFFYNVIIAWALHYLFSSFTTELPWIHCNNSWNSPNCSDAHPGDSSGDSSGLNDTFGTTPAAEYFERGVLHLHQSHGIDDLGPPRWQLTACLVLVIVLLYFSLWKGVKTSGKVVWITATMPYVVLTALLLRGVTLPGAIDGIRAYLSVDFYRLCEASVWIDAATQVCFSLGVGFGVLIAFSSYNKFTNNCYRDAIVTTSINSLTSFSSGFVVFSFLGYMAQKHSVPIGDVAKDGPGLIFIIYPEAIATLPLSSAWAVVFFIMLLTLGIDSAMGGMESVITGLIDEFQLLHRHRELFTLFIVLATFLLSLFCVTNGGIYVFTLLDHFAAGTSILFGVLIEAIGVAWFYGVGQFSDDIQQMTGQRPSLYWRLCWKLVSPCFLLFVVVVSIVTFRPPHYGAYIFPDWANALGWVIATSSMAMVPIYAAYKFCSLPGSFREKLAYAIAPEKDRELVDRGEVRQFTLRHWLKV
T13 sequence (P08173 whole entry): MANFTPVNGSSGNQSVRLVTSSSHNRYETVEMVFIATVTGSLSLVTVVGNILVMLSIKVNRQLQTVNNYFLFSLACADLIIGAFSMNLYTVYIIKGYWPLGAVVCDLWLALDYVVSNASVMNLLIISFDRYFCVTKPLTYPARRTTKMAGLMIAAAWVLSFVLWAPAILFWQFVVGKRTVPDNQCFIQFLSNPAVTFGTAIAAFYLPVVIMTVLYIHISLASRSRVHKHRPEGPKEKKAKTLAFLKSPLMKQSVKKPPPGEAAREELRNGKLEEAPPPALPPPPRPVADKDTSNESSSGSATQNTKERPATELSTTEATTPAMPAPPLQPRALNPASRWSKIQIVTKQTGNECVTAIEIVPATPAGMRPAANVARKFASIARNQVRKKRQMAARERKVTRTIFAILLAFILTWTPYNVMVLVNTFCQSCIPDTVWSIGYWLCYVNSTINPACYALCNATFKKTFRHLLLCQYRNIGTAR
T8 sequence (P13945 whole entry): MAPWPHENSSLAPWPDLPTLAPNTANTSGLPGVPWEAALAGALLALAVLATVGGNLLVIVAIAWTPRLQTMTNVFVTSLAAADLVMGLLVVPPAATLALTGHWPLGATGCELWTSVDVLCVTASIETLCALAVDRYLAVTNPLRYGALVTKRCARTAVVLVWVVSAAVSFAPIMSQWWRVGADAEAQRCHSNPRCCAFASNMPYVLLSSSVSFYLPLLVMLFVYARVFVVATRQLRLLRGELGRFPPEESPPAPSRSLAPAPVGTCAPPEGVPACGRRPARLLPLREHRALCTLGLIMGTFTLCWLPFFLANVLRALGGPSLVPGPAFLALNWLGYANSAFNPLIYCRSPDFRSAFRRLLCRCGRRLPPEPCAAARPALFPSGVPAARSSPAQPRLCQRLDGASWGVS
T11 sequence (Q9H3N8 whole entry): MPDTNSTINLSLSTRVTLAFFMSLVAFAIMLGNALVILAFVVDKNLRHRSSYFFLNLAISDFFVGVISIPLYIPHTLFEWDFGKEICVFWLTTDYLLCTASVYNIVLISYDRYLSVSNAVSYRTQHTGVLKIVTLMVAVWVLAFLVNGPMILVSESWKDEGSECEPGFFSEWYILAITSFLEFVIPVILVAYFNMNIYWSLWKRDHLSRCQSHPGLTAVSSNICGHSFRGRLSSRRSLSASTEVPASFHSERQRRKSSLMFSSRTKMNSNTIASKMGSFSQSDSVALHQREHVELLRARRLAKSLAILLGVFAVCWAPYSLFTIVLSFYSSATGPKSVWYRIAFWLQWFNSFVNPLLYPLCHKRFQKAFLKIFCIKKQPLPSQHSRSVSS

Row | Compound | inhibition at 10 µM [1] | inhibition at 10 µM [2] | inhibition at 10 µM [3] | inhibition at 10 µM [4] | inhibition at 10 µM [5] | Ki [6] | inhibition at 10 µM [6] | Ki [7] | inhibition at 10 µM [7] | Mean % (inhibition) [8] | inhibition at 10 µM [9] | inhibition at 10 µM [10] | inhibition at 10 µM [11] | inhibition at 10 µM [12] | inhibition at 10 µM [13] | inhibition at 10 µM [14] | inhibition at 10 µM [15] | inhibition at 10 µM [16] | inhibition at 10 µM [17] | inhibition at 10 µM [18] | also measured
1 | COc1ccc(-c2nc(C)c(Cl)c(OCCCN3CCCCC3)n2)cc1 [CNY-01, 5‐chloro‐2‐(4‐methoxyphenyl)‐4‐methyl‐6‐(3‐(piperidin‐1‐yl)propoxy)pyrimidine] | 17.5% | 59.3% | 21.6% | -11.4% | 55.9% | 1350 nM | 93.1% | 430 nM | 85.1% | 10.99% | 4.03% | 9.11% | 4.43% | 27.2% | 20.9% | 24% | 61.1% | 22.3% | 20.6% | 25.8% | Ki [2]: 4700 nM; Ki [5]: 2370 nM; Ki [15]: 1060 nM; inhibition at 10 µM [19]: 21.8%
2 | Cc1nc(-c2ccc(Cl)cc2)nc(OCCCN2CCN(C)CC2)c1Cl [CNY-02, 5‐chloro‐2‐(4‐chlorophenyl)‐4‐methyl‐6‐(3‐(4‐methylpiperazin‐1‐yl)propoxy)pyrimidine] | -2.49% | -4.02% | -1.08% | -26.1% | 47.6% | 3390 nM | 68.4% | 3770 nM | 52.4% | 23.26% | 11.7% | -3.01% | -0.57% | 58% | 33.8% | 23.3% | 20.4% | 36% | 31.1% | 26% | Ki [12]: > 10000 nM; inhibition at 10 µM [19]: 43%
